Patent US6653307B2, “1-aryl-4-oxo-1,4-dihydro-3-quinolinecarboxamides as antiviral agents” (Pharmacia & Upjohn Company, priority 2000, dated 2003)

Experiments:
[1] = target: T1, HCMV polymerase (Human cytomegalovirus, UniProt P08546); experiment: HCMV polymerase scintillation proximity assay (SPA); format: biochemical; settings: 3H-dTTP incorporation
T1 construct: made in house; host or cells: recombinant baculovirus-infected SF-9 cells
Method: (§1) The HCMV polymerase assay is performed using a scintillation proximity assay (SPA) as described in several references, such as N.D. Cook, et al., Pharmaceutical Manufacturing International, pages 49-53 (1992); K. Takeuchi, Laboratory Practice, September issue (1992); U.S. Pat. No. 4,568,649 (1986); which are incorporated by reference herein. Reactions are performed in 96-well plates. The assay is conducted in 100 μl volume with 5.4 mM HEPES (pH 7.5), 11.7 mM KCl, 4.5 mM MgCl2, 0.36 mg/ml BSA, and 90 nM ^3H-dTTP. Assays are run with and without CHAPS, (3-[(3-cholamidopropyl)-dimethylammonio]-1-propane-sulfonate) at a final concentration of 2 mM. HCMV polymerase is diluted in enzyme dilution buffer containing 50% glycerol, 250 mM NaCl, 10 mM HEPES (pH 7.5), 100 μg/ml BSA, and 0.01% sodium azide. The HCMV polymerase, which is expressed in recombinant baculovirus-infected SF-9 cells and purified according to literature procedures, is added at 10% (or 10 μl) of the final reaction volume, i.e., […]. Compounds are diluted in 50% DMSO and 10 μl are added to each well. Control wells contain an equivalent concentration of DMSO. Unless noted otherwise, reactions are initiated via the addition of 6 nM biotinylated poly(dA)-oligo(dT) template/primer to reaction mixtures containing the enzyme, substrate, and compounds of interest. Plates are incubated in a 25 C or 37 C H2O bath and terminated via the addition of 40 μl/reaction of 0.5 M EDTA (pH 8) per well. Reactions are terminated within the time-frame during which substrate incorporation is linear and varied depending upon the enzyme and conditions used, i.e., 30 min. for HCMV polymerase. Ten μl of streptavidin-SPA beads (20 mg/ml in PBS/10% glycerol) are added following termination of the reaction. Plates are incubated 10 min. at 37 C, then equilibrated to room temperature, and counted on a Packard Topcount. Linear regressions are performed and IC50's are calculated using computer software. A modified version of the above HCMV polymerase assay is performed as described above, but with the following changes: Compounds are diluted in 100% DMSO until final dilution into assay buffer. In the previous assay, compounds are diluted in 50% DMSO. 4.5 mM dithiotherotol (DTT) is added to the polymerase buffer.

[2] = target: VZV polymerase (Varicella-zoster virus, UniProt P09252); experiment: VZV polymerase assay (Table 1); format: biochemical
Method: [Worded in the source for another target; this target is reported under the same test.] as §1

[3] = target: HSV polymerase (Human herpesvirus 1, UniProt P04293); experiment: HSV polymerase assay (Table 1); format: biochemical
Method: [Worded in the source for another target; this target is reported under the same test.] as §1

T1 sequence (P08546 whole entry): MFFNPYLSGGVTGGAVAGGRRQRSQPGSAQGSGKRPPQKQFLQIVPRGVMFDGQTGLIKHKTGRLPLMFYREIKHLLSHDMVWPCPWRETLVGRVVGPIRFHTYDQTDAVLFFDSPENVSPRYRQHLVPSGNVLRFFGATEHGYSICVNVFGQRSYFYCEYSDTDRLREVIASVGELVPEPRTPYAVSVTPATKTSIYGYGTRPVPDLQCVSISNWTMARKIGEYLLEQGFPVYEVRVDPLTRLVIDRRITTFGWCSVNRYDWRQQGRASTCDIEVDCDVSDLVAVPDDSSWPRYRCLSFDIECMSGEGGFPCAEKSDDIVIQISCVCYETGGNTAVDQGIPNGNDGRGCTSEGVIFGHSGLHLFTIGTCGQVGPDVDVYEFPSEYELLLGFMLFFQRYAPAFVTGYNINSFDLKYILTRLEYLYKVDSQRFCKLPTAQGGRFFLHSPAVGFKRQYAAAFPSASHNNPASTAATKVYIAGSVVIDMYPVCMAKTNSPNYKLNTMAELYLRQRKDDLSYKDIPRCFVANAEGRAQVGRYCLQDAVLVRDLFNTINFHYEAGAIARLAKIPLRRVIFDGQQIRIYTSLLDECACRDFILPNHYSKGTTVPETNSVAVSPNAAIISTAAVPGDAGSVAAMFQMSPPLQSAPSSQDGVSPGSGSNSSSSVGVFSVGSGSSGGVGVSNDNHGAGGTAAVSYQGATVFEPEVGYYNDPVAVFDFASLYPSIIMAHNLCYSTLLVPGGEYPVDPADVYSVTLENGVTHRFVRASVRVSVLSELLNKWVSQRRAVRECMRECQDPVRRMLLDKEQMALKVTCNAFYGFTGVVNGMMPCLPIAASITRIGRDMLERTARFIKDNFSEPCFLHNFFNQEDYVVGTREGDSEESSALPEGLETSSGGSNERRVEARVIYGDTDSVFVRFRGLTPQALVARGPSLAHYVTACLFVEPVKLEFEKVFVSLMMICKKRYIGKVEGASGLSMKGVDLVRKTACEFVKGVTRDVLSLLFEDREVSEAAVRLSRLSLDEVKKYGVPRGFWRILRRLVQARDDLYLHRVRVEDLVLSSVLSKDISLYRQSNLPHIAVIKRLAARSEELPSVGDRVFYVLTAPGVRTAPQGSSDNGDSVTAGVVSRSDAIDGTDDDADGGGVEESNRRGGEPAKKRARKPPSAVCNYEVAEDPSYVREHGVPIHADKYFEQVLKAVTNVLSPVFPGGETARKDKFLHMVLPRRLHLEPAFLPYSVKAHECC
VZV polymerase, sequence (P09252 whole entry): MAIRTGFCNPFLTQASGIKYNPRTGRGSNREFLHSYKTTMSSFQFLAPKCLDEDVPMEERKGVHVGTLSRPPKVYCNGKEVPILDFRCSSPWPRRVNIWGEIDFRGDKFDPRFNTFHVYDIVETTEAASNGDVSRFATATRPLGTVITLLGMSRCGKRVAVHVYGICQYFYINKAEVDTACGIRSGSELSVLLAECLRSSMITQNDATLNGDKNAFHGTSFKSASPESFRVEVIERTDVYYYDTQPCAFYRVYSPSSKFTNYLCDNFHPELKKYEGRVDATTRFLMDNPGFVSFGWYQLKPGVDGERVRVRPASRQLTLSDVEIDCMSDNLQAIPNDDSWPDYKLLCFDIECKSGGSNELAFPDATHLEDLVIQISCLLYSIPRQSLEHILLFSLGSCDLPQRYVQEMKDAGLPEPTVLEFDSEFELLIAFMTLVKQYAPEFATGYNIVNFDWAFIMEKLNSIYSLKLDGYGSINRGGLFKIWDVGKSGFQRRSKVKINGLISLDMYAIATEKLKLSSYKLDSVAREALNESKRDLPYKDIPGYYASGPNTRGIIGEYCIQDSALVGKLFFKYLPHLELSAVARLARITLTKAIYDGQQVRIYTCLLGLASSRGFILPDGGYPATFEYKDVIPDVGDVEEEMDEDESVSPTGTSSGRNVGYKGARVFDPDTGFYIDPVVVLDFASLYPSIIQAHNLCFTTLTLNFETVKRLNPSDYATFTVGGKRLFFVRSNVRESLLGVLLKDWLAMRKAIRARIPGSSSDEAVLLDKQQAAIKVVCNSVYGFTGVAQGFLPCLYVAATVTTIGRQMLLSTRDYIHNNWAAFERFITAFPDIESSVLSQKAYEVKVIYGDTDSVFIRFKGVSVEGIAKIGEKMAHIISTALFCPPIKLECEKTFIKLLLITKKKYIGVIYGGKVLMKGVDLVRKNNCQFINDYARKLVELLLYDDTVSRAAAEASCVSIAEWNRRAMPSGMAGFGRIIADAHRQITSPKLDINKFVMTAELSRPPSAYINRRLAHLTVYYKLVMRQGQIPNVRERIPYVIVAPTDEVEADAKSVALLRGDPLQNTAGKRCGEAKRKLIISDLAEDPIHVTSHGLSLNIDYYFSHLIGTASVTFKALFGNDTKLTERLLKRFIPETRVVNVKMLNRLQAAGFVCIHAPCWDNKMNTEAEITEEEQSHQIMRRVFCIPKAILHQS
HSV polymerase, sequence (P04293 whole entry): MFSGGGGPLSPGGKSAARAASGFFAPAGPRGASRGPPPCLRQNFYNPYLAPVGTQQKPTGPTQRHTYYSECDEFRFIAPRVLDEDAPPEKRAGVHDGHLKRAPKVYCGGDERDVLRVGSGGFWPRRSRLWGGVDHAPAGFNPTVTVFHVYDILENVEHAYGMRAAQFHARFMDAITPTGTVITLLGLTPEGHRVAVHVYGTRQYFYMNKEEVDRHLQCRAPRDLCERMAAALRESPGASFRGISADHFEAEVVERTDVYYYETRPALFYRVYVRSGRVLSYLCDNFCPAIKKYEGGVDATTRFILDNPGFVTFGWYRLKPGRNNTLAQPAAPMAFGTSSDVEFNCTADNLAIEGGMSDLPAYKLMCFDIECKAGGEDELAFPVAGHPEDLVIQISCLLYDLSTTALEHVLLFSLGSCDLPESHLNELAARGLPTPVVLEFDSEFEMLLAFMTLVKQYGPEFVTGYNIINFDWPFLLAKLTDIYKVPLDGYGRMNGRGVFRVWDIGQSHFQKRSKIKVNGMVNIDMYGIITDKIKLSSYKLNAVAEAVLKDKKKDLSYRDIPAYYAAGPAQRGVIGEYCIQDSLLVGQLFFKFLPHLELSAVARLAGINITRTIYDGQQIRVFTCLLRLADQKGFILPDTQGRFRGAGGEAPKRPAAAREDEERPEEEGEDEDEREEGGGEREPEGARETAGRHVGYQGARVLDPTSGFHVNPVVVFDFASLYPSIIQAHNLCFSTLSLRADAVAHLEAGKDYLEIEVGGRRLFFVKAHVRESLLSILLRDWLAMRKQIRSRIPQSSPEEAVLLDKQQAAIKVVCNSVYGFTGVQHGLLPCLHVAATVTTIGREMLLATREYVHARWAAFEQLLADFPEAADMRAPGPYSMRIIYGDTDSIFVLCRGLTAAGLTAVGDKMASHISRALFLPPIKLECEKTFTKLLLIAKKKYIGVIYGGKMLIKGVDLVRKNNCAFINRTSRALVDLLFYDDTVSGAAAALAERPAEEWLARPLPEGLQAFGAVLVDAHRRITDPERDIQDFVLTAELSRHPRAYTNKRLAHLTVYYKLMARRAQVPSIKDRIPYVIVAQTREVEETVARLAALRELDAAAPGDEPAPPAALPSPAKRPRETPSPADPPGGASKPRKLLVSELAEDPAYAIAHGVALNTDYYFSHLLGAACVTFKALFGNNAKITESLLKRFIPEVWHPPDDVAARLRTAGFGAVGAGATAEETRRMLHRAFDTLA

Compound	melting point [°C]	IC50 [1] [µM]	IC50 [2] [µM]	IC50 [3] [µM]
O=C(NCc1ccc(Cl)cc1)c1cn(-c2ccccc2CO)c2ccc(CN3CCOCC3)cc2c1=O [Example 8, N-(4-Chlorobenzyl)-1-(2-(hydroxymethyl)phenyl)-6-(4-morpholinylmethyl)-4-oxo-1,4-dihydro-3-quinolinecarboxamide]	162 to 163	1.47	–	–
CC(C)c1ccc(-n2cc(C(=O)NCc3ccc(Cl)cc3)c(=O)c3cc(CN4CCOCC4)ccc32)cc1 [Example 5, N-(4-Chlorobenzyl)-1-(4-isopropylphenyl)-6-(4-morpholinylmethyl)-4-oxo-1,4-dihydro-3-quinolinecarboxamnide]	199 to 203	4	–	–
COc1cccc(-n2cc(C(=O)NCc3ccc(Cl)cc3)c(=O)c3cc(CN4CCOCC4)ccc32)c1 [Example 16, N-(4-Chlorobenzyl)-1-(3-methoxyphenyl)-6-(4-morpholinylmethyl)-4-oxo-1,4-dihydro-3-quinolinecarboxamide]	110 to 113	1.9	–	–
Cc1ccccc1-n1cc(C(=O)NCc2ccc(Cl)cc2)c(=O)c2cc(CN3CCOCC3)ccc21 [Example 2, N-(4-Chlorobenzyl)-1-(2-methylphenyl)-6-(4-morpholinylmethyl)-4-oxo-1,4-dihydro-3-quinolinecarboxamide]	148 to 150	3	–	–
O=C(NCc1ccc(F)cc1)c1cn(-c2ccc3[nH]ccc3c2)c2ccc(CN3CCOCC3)cc2c1=O [Example 12, N-(4-Fluorobenzyl)-1-(1 H-indol-5-yl)-6-(4-morpholinylmethyl)-4-oxo-1,4-dihydro-3-quinolinecarboxamide]	223 to 225	2.2	–	–
O=C(NCc1ccc(Cl)cc1)c1cn(-c2cccc(I)c2)c2ccc(CN3CCOCC3)cc2c1=O [Example 3, N-(4-Chlorobenzyl)-1-(3-iodophenyl)-6-(4-morpholinylmethyl)-4-oxo-1,4-dihydro-3-quinolinecarboxamide]	176 to 179	2.1	–	–
O=C(NCc1ccc(Cl)cc1)c1cn(-c2ccc(N3CCOCC3)cc2)c2ccc(CN3CCOCC3)cc2c1=O [Example 18, N-(4-Chlorobenzyl)-6-(4-morpholinylmethyl)-1-(4-(4-morpholinyl)phenyl)-4-oxo-1,4-dihydro-3-quinolinecarboxamide]	162 to 164	1.21	–	–
O=C(NCc1ccc(Cl)cc1)c1cn(-c2ccc3c(c2)CCC3)c2ccc(CN3CCOCC3)cc2c1=O [Example 9, N-(4-Chlorobenzyl)-1-(2,3-dihydro-1H-inden-5-yl)-6-(4-morpholinylmethyl)-4-oxo-1,4-dihydro-3-quinolinecarboxamide]	123 to 125	1.32	–	–
O=C(NCc1ccc(F)cc1)c1cn(-c2cccc(CCO)c2)c2ccc(CN3CCOCC3)cc2c1=O [Example 15, N-(4-Fluorobenzyl)-1-(3-(2-hydroxyethyl)phenyl)-6-(4-morpholinylmethyl)-4-oxo-1,4-dihydro-3-quinolinecarboxamide]	128 to 132	1.7	–	–
O=C(NCc1ccc(F)cc1)c1cn(-c2ccc(Cl)cc2)c2ccc(CN3CCOCC3)cc2c1=O [Example 7, N-(4-Fluorobenzyl)-1-(4-chlorophenyl)-6-(4-morpholinylmethyl)-4-oxo-1,4-dihydro-3-quinolinecarboxamide]	–	2	–	–

The remaining lines, values ahead:

melting point [°C]	IC50 [1] [µM]	IC50 [2] [µM]	IC50 [3] [µM]	Compound
125 to 128	1.13	–	–	O=C(NCc1ccc(Cl)cc1)c1cn(-c2cccc(C#CCCO)c2)c2ccc(CN3CCOCC3)cc2c1=O [Example 21, N-(4-Chlorobenzyl)-1-(3-(4-hydroxy-1-butynyl)phenyl)-6-(4-morpholinylmethyl)-4-oxo-1,4-dihydro-3-quinolinecarboxamide]
189 to 191	1.1	–	–	COc1ccc(-n2cc(C(=O)NCc3ccc(Cl)cc3)c(=O)c3cc(CN4CCOCC4)ccc32)cc1 [Example 6, N-(4-Chlorobenzyl)-1-(4-methoxyphenyl)-6-(4-morpholinylmethyl)-4-oxo-1,4-dihydro-3-quinolinecarboxamide]
248 to 250	0.73	0.24	0.54	O=C(NCc1ccc(Cl)cc1)c1cn(-c2cccc(O)c2)c2ccc(CN3CCOCC3)cc2c1=O [Example 13, N-(4-Chlorobenzyl)-I-(3-hydroxyphenyl)-6-(4-morpholinylmethyl)-4-oxo-1,4-dihydro-3-quinolinecarboxamide]
119 to 121	0.68	–	–	O=C(NCc1ccc(Cl)cc1)c1cn(-c2cccc(CCCCO)c2)c2ccc(CN3CCOCC3)cc2c1=O [Example 24, N-(4-Chlorobenzyl)-1-(3-(4-hydroxybutyl)phenyl)-6-(4-morpholinylmethyl)-4-oxo-1,4-dihydro-3-quinolinecarboxamide]
188 to 189	0.89	–	–	O=C(NCc1ccc(Cl)cc1)c1cn(-c2ccc3c(c2)OCO3)c2ccc(CN3CCOCC3)cc2c1=O [Example 10, 1-(1,3-Benzodioxol-5-yl)-N-(4-chlorobenzyl)-6-(4-morpholinylmethyl)-4-oxo-1,4-dihydro-3-quinolinecarboxamide]
107 to 110	1.05	–	–	O=C(NCc1ccc(Cl)cc1)c1cn(-c2ccc(F)c(F)c2)c2ccc(CN3CCOCC3)cc2c1=O [Example 19, N-(4-Chlorobenzyl)-1-(3,4-difluorophenyl)-6-(4-morpholinylmethyl)-4-oxo-1,4-dihydro-3-quinolinecarboxamide]
142 to 144	0.76	–	–	O=C(NCc1ccc(Cl)cc1)c1cn(-c2cccc(CCCCCO)c2)c2ccc(CN3CCOCC3)cc2c1=O [Example 23, N-(4-Chlorobenzyl)-1-(3-(5-hydroxypentyl)phenyl)-6-(4-morpholinylmethyl)-4-oxo-1,4-dihydro-3-quinolinecarboxamide]
125 to 128	0.93	–	–	O=C(NCc1ccc(Cl)cc1)c1cn(-c2cccc(C#CCCCO)c2)c2ccc(CN3CCOCC3)cc2c1=O [Example 22]
119 to 121	0.74	0.31	0.44	O=C(NCc1ccc(Cl)cc1)c1cn(-c2cccc(CO)c2)c2ccc(CN3CCOCC3)cc2c1=O [Example 17, N-(4-Chlorobenzyl)-1-(3-(hydroxymethyl)phenyl)-6-(4-morpholinylmethyl)-4-oxo-1,4-dihydro-3-quinolinecarboxamide]
189 to 191	1.1	–	–	O=C(NCc1ccc(Cl)cc1)c1cn(-c2ccc(Cl)cc2)c2ccc(CN3CCOCC3)cc2c1=O [Example 4, N-(4-Chlorobenzyl)-1-(4-chlorophenyl)-6-(4-morpholinylmethyl)-4-oxo-1,4-dihydro-3-quinolinecarboxamide]
241 to 243	1.18	–	–	O=C(NCc1ccc(Cl)cc1)c1cn(-c2ccc3[nH]ccc3c2)c2ccc(CN3CCOCC3)cc2c1=O [Example 11, N-(4-Chlorobenzyl)-1-(1H-indol-5-yl)-6-(4-morpholinylmethyl)-4-oxo-1,4-dihydro-3-quinolinecarboxamide]
